Experimental data from patent US20260176289A1, “SMALL MOLECULE INHIBITORS OF KRAS PROTEINS” (Merck Sharp & Dohme LLC, priority 2022, published 2026).
Read-outs that look alike come from different tables or passages of the source.

Legend:
KRAS-WT = KRAS-WT (Homo sapiens, UniProt P01116); experiment: SOS-catalyzed nucleotide exchange assay (Procedure A, TR-FRET), KRAS-WT; type: biochemical; conditions: nucleotide exchange, read-out: KRAS WT GNE IC50
Description: (§1) Procedure for SOS-Catalyzed Nucleotide Exchange Assay for KRAS-WT, G12C/D/V, G13D, HRAS, and NRAS (Procedure A)
(§2) Recombinant KRAS-G12C protein used in this assay has an additional triple mutation (C51S/C80L/C118S). Whereas KRAS-WT, G12D/V, G13D, HRAS and NRAS are in context of their WT protein sequence background. Specifically, the SOS-catalyzed nucleotide exchange assay utilizes a preformed TR-FRET complex containing a specific biotinylated RAS protein (KRAS-WT, G12C/V/D, G13D, HRAS, NRAS; described above) with Bodipy-GDP, and Terbium-streptavidin. Compounds are preincubated with this complex for 60 minutes. Subsequently, recombinant human SOS protein and unlabeled GTP are added to initiate the exchange reaction. Small molecule inhibitors stabilize the Bodipy-GDP complex whereas the untreated protein rapidly exchanges Bodipy-GDP for unlabeled GTP resulting in reduced TR-FRET signal.
(§3) To assemble the preformed TR-FRET complexes, each biotinylated RAS protein is diluted to 2 μM in an EDTA Buffer (20 mM HEPES pH 7.5, 50 mM sodium chloride, 10 mM EDTA, and 0.01% Tween) and incubated at room temperature for one hour. This mixture is then further diluted to 90 nM in an Assay Buffer (20 mM HEPES pH 7.5, 150 mM sodium chloride, 10 mM magnesium chloride, and 0.005% Tween) containing 15 nM of Terbium-Streptavidin (Invitrogen, catalog #PV3577) and 900 nM of Bodipy-GDP (Invitrogen, catalog #G22360) and incubated at room temperature for six hours. It should be noted that this preformed TR-FRET complex for each of the RAS protein were made ahead of time, aliquoted and stored at −80° C. until the day of the experiment.
(§4) Each test compound (10 mM stock in DMSO) is diluted in DMSO to make a final-10-point, 3-fold dilution and is acoustically dispensed into a 384-well assay plate (Corning, catalog #3820) using an Echo 550 (Labcyte). Each well of the assay plate receives 3 μL of a specific 3×RAS preformed TR-FRET complex and 3 μL of Assay Buffer and is incubated at room temperature for 60 minutes (preincubation time). Each well then receives 3 μL of 3×recombinant human SOS protein and GTP (Sigma, G8877) in Assay Buffer and is incubated at room temperature for 30 minutes (G13D), 60 minutes (KRAS WT/G12C/D, H/NRAS) or 90 minutes for G12V. The final reaction in each well of 9 μL consists of 3 mM GTP, specific Ras and SOS proteins in the following concentrations: KRAS-G12C/SOS=3 nM/40 nM, KRAS-WT and G12D/SOS=1 nM/40 nM, KRAS-G12V/SOS=1.25 nM/160 nM. KRAS-G13D/SOS=1.25 nM/0 nM, HRAS and NRAS=1.25 nM/40 nM.
(§5) The time-resolved fluorescence resonance energy transfer (TR-FRET) signal is measured on an Envision (PerkinElmer) plate reader: Excitation filter=340 nm; emission 1=495 nm; emission2=520 nm; dichroic mirror=D400/D505; delay time=[…]. The signal of each well is determined as the ratio of the emission at 520 nm to that at 495 nm. Percent effect of each well is determined after normalization to control wells containing DMSO (no effect) or a saturating concentration of inhibitor (max effect). The apparent effect as a function of compound concentration is fit to a four-parameter logistic equation.

KRAS-G12D = KRAS-G12D (Homo sapiens, UniProt P01116, G12D); experiment: SOS-catalyzed nucleotide exchange assay (Procedure A, TR-FRET), KRAS-G12D; type: biochemical; conditions: nucleotide exchange, read-out: KRAS G12D GNE IC50
Sequence of KRAS-G12D (P01116 with tags, fused parts or gaps isoform P01116-2 G12D): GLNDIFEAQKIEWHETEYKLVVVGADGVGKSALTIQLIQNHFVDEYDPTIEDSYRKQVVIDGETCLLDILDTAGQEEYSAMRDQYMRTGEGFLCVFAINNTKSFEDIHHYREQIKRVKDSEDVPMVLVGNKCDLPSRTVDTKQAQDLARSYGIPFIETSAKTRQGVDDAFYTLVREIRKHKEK
Description: as §1, §2, §3, §4, §5

KRAS-G12V = KRAS-G12V (Homo sapiens, UniProt P01116, G12V); experiment: SOS-catalyzed nucleotide exchange assay (Procedure A, TR-FRET), KRAS-G12V; type: biochemical; conditions: nucleotide exchange, read-out: KRAS G12V GNE IC50
Sequence of KRAS-G12V (P01116 with tags, fused parts or gaps isoform P01116-2 G12V): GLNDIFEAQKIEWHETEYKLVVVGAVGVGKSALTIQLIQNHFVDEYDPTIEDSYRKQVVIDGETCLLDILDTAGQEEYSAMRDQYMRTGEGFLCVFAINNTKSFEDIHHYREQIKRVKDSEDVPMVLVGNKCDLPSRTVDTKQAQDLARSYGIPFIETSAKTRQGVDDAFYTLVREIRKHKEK
Description: as §1, §2, §3, §4, §5

AsPC-1 cells = experiment: Cellular phospho-ERK assay, AsPC-1 cells (homozygous KRAS-G12D); type: cell-based; conditions: Homo sapiens, ASPC1, 2 h, read-out: AsPC1 pERK IC50
Procedure: Procedure for Cellular Phospho-ERK Assay in KRAS Wild Type and Mutant (G12D, G12V) Cell Lines
MKN-1 cells (JCRB JCRB0252) containing amplified wild-type KRAS, were cultured in growth medium that contains RPMI 1640-GlutaMAX™-I (ThermoFisher Scientific 61870) containing 10% heat inactivated fetal bovine serum (ThermoFisher Scientific 10091148), 1 mM sodium pyruvate and 10 mM HEPES. PANC08.13 cells (ATCC® CRL-2551™), containing homozygous KRAS-G12D activating mutation, were cultured in growth medium made of RPMI1640-GlutaMAX™-I (ThermoFisher Scientific 61870) containing 15% heat inactivated fetal bovine serum (ThermoFisher Scientific 10091148)). AsPC-1 cells (ATCC® CRL-1682™), containing homozygous KRAS-G12D activating mutation, were cultured in T150 flask in growth medium (RPMI medium 1640-GlutaMAX™-I (ThermoFisher Scientific 61870) containing 10% fetal bovine serum (ThermoFisher Scientific 10091148)). SW620 cells (ATCC® […]), containing homozygous KRAS-G12V activating mutation, were cultured in growth medium that contains RPMI 1640-GlutaMAX™-I (ThermoFisher Scientific 61870) containing 10% heat inactivated fetal bovine serum (ThermoFisher Scientific 10091148).
Cells for the assay were harvested in growth medium after TrypLE (ThermoFisher scientific 12604021) digestion and were seeded in a 384-well collagen coated cell culture plate (Corning 356702) at a density of 10,000-15,000 cells/20 μL/well, and incubated at 37° C., 5% CO2 overnight. The compound (with 10 mM stock concentration) dose-response titrations were prepared [30 μM final ERK detection assay concentration and 1:3 dilutions, 10-point dose response] and appropriate amounts (270 nL) of test compounds were dispensed in a 384-well intermediate plate using an Echo 550 liquid handler. 30 μL/well of RPMI medium 1640-GlutaMAX™—I was added to the intermediate plate and the contents of the intermediate plate (10 μL/well) were then transferred to the 384-well collagen coated cell culture plate, which was incubated at 37° C., 5% CO2 for 2 hours. After removal of medium from the collagen coated cell culture plate, cells were lysed in lysis buffer from Alpha SureFire® Ultra™ Multiplex p-ERK and total ERK assay kit (PerkinElmer MPSU-PTERK) containing Halt™ Protease and Phosphatase inhibitor cocktail (ThermoFisher Scientific 78446) at room temperature with constant shaking at 300 rpm for 30 minutes. The cell lysates were then transferred to an OptiPlate-384 plate (PerkinElmer 6005620), and the phosphorylation of ERK (p-ERK) and total ERK levels were detected by Alpha SureFire® Ultra™ Multiplex p-EEK kit and total ERK assay kit (PerkinElmer MPSU-PTERK) following the manufacturer's protocol. Assay plates were read on a En Vision Multimode Plate Reader (PerkinElmer), and the ratio of p-ERK vs. total ERK in each well was used as the final readout. Dose response curves were analyzed using a 4-parameter logistic model to calculate IC50 values using Spotfire software.

Sequence of KRAS-WT (P01116 with tags, fused parts or gaps isoform P01116-2): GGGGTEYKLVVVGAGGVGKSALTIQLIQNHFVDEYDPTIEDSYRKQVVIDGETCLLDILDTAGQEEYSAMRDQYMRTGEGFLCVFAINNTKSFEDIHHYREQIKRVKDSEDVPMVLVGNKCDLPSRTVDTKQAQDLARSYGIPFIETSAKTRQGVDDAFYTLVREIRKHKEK

| SMILES | IC50 (KRAS-WT) [nM] | IC50 (KRAS-G12D) [nM] | IC50 (KRAS-G12V) [nM] | IC50 (AsPC-1 cells; 2 hours compound incubation) [nM] | IC50 (AsPC-1 cells; KRAS-G12D, 2 hours) [nM] |
| --- | --- | --- | --- | --- | --- |
| C[C@@]1(O)COCCN(c2nc(OC[C@]3(CN4CC(C#N)C4)CC3(F)F)nc3sc4c(-c5c(C6(F)CC6)c(Cl)cc6[nH]ncc56)nccc4c23)C1 [Ex-238, 1-(((IR)-1-(((8-(6-chloro-5-(1-fluorocyclopropyl)-1H-indazol-4-yl)-4-((S)-6-hydroxy-6-methyl-1,4-oxazepan-4-yl)pyrido[4′,3′:4,5]thieno[2,3-d]pyrimidin-2-yl)oxy)methyl)-2,2-difluorocyclopropyl)methyl]a-zetidine-3-carbonitrile] | 446 | 112 | 400 | 4120 |  |
| C[C@H]1CN(C[C@@]2(COc3nc(N4CCOC[C@@](C)(O)C4)c4c(n3)sc3c(-c5c(C6(F)CC6)c(Cl)cc6[nH]ncc56)nccc34)CC2(F)F)[C@@H](C)CO1 [Ex-241, (6S)-4-(8-(6-chloro-5-(1-fluorocyclopropyl)-1H-indazol-4-yl)-2-(((R)-1-(((2S,5S)-2,5-dimethylmorpholino)methyl)-2,2-difluorocyclopropyl)methoxy)pyrido[4′,3′:4,5]thieno[2,3-d]pyrimidin-4-yl)-6-methyl-1,4-oxazepan-6-ol] | 1860 | 98.2 | 308 | 1410 |  |
| CC1=CCc2cc3[nH]ncc3c(-c3nccc4c3sc3nc(OC[C@@]56CCCN5C[C@H](F)C6)nc(N5CCOC[C@@](C)(O)C5)c34)c21 [Ex-106, (6S)-4-(2-(((2R,7aS)-2-fluorotetrahydro-1H-pyrrolizin-7a(5H)-yl)methoxy)-8-(5-methyl-1,7-dihydrocyclopenta[f]inda-zol-4-yl)pyrido[4′,3′:4,5]thieno [2,3-d]pyrimidin-4-yl)-6-methyl-1,4-oxazepan-6-ol] | 55.1 | 19.7 | 30.6 |  | 128 |
| Cc1c(Cl)cccc1-c1nccc2c1sc1nc(OC[C@@]34CCCN3C[C@H](F)C4)nc(N3CCOC[C@@](C)(O)C3)c12 [Ex-121, (S)-4-(8-(3-chloro-2-methylphenyl)-2-(((2R,7aS)-2-fluorotetrahydro-1H-pyrrolizin-7a(5H)-yl)methoxy)pyrido[4′,3′:4,5]thi-eno[2,3-d]pyrimidin-4-yl)-6-methyl-1,4-oxazepan-6-ol] | 1030 | 369 | 278 |  | 3430 |
| C[C@@]1(O)COCCN(c2nc(OC[C@]3(CN4CCC[C@H]4CF)CC3(F)F)nc3sc4c(-c5c(C6(F)CC6)c(Cl)cc6[nH]ncc56)nccc4c23)C1 [Ex-247, (6S)-4-(8-(6-chloro-5-(1-fluorocyclopropyl)-1H-indazol-4-yl)-2-(((R)-2,2-difluoro-1-(((S)-2-(fluoromethyl)pyrrolidin-1-yl)methyl)cyclopropyl)metho-xy)pyrido[4′,3′:4,5]thieno[2,3-d]pyrimidin-4-yl)-6-methyl-1,4-oxazepan-6-ol] | 352 | 74.6 | 320 | 977 |  |
| Cc1cc2[nH]ncc2c(-c2nccc3c2sc2nc(OC[C@@]45CCCN4C[C@H](F)C5)nc(N4CCOC[C@@](C)(O)C4)c23)c1C(C)(C)C#N [Ex-154, 2-(4-(2-(((2R,7aS)-2-fluorotetrahydro-1H-pyrrolizin-7a(5H)-yl)methoxy)-4-((S)-6-hydroxy-6-methyl-1,4-oxazepan-4-yl)pyrido[4′,3′:4,5]thieno[2,3-d]pyrimidin-8-yl)-6-methyl-1H-indazol-5-yl)-2-methylpropanenitrile] | 277 | 104 | 103 |  |  |
| F[C@H]1CN2CCC[C@@]2(COc2nc(N3CCCOCC3)c3c(n2)sc2c(-c4c(C5CC5)c(Cl)cc5[nH]ncc45)nncc23)C1 [Ex-286] | 52 | 205 | 50.3 |  | 1110 |
| C[C@@]1(O)COCCN(c2nc(OC[C@@]34CCCN3C[C@H](F)C4)nc3sc4c(-c5c(-c6ccco6)c(C(F)(F)F)cc6[nH]ncc56)nccc4c23)C1 [Ex-78] | 194 | 94.7 | 84.8 |  | 434 |
| C[C@@]1(O)COCCN(c2nc(OC[C@@]34CCCN3C[C@H](F)C4)nc3sc4c(-c5cccc(Cl)c5C5CC5)nccc4c23)C1 [Ex-122, (S)-4-(8-(3-chloro-2-cyclopropylphenyl)-2-(((2R,7aS)-2-fluorotetrahydro-1H-pyrrolizin-7a(5H)-yl)methoxy)pyri-do[4′,3′:4,5]thieno[2,3-d]pyrimidin-4-yl)-6-methyl-1,4-oxazepan-6-ol] | 908 | 404 | 280 |  |  |
| C=C1CN2CC(=C)CC2(COc2nc(N3CCOC[C@@](C)(O)C3)c3c(n2)sc2c(-c4c(C5CC5)c(Cl)cc5[nH]ncc45)nccc23)C1 [Ex-225, (6S)-4-(8-(6-chloro-5-cyclopropyl-1H-indazol-4-yl)-2-((2,6-dimethylene-tetrahydro-1H-pyrrolizin-7a(5H)-yl)methoxy)pyrido [4′,3′:4,5]thieno[2,3-d]pyrimidin-4-yl)-6-methyl-1,4-oxaze-pan-6-ol] | 39.9 | 12.7 | 21.5 |  |  |
